Assay results reported in patent US20060045953A1 (priority 2004, published 2006).

Target: T1, hT1R2/hT1R3 sweet receptor (Homo sapiens, UniProt Q7RTX0+Q8TE23)
T1 construct: expressed in transfected cells; host or cells: HEK293 derivative stably expressing Gα15, clone S-9
T1 sequence (Q8TE23 20-839): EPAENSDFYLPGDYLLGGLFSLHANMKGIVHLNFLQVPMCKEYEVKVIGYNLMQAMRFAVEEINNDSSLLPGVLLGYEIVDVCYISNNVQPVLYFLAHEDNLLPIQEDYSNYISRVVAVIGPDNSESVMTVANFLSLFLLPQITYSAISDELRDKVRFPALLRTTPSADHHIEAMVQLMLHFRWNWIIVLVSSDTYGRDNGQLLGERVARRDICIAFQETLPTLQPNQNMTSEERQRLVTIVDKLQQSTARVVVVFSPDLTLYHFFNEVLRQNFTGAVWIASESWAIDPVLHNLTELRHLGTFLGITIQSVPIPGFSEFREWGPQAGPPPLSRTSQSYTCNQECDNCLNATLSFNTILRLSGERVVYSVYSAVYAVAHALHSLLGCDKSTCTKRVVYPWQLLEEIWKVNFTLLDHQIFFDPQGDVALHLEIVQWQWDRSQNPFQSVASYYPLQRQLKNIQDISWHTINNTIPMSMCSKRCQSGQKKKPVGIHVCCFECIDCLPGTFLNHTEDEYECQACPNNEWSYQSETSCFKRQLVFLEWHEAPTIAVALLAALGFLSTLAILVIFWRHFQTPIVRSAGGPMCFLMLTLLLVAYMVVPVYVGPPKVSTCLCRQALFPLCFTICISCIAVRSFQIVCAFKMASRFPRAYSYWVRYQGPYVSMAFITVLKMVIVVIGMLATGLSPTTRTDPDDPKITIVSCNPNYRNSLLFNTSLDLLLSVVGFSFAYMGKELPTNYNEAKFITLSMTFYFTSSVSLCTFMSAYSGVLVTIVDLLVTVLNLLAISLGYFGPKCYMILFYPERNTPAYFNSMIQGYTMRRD
T1 sequence (Q7RTX0 21-852): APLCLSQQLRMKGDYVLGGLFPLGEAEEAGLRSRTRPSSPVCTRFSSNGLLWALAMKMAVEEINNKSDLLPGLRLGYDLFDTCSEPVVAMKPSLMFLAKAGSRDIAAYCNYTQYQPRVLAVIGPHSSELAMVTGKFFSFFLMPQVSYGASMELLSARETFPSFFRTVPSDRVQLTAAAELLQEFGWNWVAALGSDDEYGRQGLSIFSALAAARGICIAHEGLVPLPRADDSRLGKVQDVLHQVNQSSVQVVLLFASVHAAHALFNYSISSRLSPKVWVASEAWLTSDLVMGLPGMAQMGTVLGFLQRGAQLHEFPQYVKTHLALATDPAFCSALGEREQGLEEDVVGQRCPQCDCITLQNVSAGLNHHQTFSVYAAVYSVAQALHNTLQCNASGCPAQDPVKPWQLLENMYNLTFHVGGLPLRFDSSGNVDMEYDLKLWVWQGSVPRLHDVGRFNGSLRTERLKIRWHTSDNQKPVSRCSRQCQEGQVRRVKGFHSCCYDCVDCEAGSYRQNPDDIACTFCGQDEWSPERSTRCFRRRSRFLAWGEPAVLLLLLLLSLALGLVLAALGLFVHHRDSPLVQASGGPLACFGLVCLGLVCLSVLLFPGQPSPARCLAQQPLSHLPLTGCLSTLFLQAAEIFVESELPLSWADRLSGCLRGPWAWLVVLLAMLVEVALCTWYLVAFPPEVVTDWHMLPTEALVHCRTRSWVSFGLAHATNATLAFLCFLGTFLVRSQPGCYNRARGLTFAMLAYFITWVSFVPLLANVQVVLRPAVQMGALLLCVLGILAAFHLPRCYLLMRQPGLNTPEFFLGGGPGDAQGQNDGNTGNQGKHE
Assay: In vitro hT1R2/hT1R3 sweet taste receptor activation assay (FLIPR, dose response)
Format: cell-based
Conditions: Table E, Sweet Enhancer Amides; read-out: Sweet EC50
Procedure, shortened: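 S-9 cells expressing hT1R2/hT1R3, loaded with 4 µM Fluo-3AM 1 h at room temperature. Calcium response on FLIPR at room temperature in D-PBS, with 10 concentrations from 60 nM to 30 µM in duplicate.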

Row | Structure (SMILES) | EC50 [nM]
1 | Cc1cccc(C(=O)NC2CCCCC2C)c1C (centres unmarked) [Example E63, 2,3-dimethyl-N-(2-methylcyclohexyl)benzamide] | 2600
2 | CC1CCCC(NC(=O)c2c(Cl)cccc2Cl)C1C (centres unmarked) [Example E64, 2,6-dichloro-N-(2,3-dimethylcyclohexyl)benzamide] | 2770
3 | CC1CCCCC1NC(=O)c1ccnc(F)c1 (centres unmarked) [Example E65, 2-fluoro-N-(2-methylcyclohexyl)isonicotinamide] | 2830
4 | Cc1cc(C)c(C(=O)NC2CCCCC2)c(C)c1 [Example E66, N-cyclohexyl-2,4,6-trimethylbenzamide] | 2860
5 | Cc1ccc(C(=O)NC2CCC(C)CC2)c(O)c1 (centres unmarked) [Example E67, 2-hydroxy-4-methyl-N-(4-methylcyclohexyl)benzamide] | 2980
6 | Cc1c(F)c(F)c(C(=O)NCC(C)C)c(F)c1F [Example E69, 2,3,5,6-tetrafluoro-N-isobutyl-4-methylbenzamide] | 3190
7 | Cc1c(F)c(F)c(C(=O)NC(C)CCC(C)C)c(F)c1F (centres unmarked) [Example E70, 2,3,5,6-tetrafluoro-4-methyl-N-(5-methylhexan-2-yl)benzamide] | 3200
8 | CC1CCCCC1NC(=O)c1ccc2nonc2c1 (centres unmarked) [Example E71] | 3330
9 | COc1cccc(C(=O)NC2CCC(C)CC2)c1O (centres unmarked) [Example E72, 2-hydroxy-3-methoxy-N-(4-methylcyclohexyl)benzamide] | 3350
10 | CC12CCC(C1)C(C)(C)C2NC(=O)c1cccs1 (centres unmarked) [Example E73, Thiophene-2-carboxylic acid (1,3,3-trimethyl-bicyclo[2.2.1]hept-2-yl)-amide] | 3360
11 | CC1CCCC(NC(=O)Cc2c(F)c(F)c(F)c(F)c2F)C1C (centres unmarked) [Example E74, N-(2,3-dimethylcyclohexyl)-2-(perfluorophenyl)acetamide] | 3620
12 | CCC(CC)NC(=O)c1cccc(Cl)c1Cl [Example E75, 2,3-dichloro-N-(pentan-3-yl)benzamide] | 3780
13 | CC1CCCC(NC(=O)c2cccc(Cl)c2Cl)C1C (centres unmarked) [Example E76, 2,3-dichloro-N-(2,3-dimethylcyclohexyl)benzamide] | 3990
14 | CC1CCCC(NC(=O)c2cc(F)ccc2F)C1C (centres unmarked) [Example E77, N-(2,3-dimethylcyclohexyl)-2,5-difluorobenzamide] | 4110
15 | CC(C)C(NC(=O)c1c(O)cccc1O)C(C)C [Example E79, N-(2,4-dimethylpentan-3-yl)-2,6-dihydroxybenzamide] | 4280
16 | Cc1c(Cl)cccc1C(=O)NC1CCCCC1C (centres unmarked) [Example E80, 3-chloro-2-methyl-N-(2-methylcyclohexyl)benzamide] | 4290
17 | CC1CCCCC1NC(=O)c1ccc(F)c(F)c1 (centres unmarked) [Example E81] | 4370
18 | Cc1cc(C)cc(C(=O)NC2CCCCC2C)c1 (centres unmarked) [Example E82, 3,5-dimethyl-N-(2-methylcyclohexyl)benzamide] | 4480
19 | CCOc1ccc(CCNC(=O)c2ccnn2C)cc1 [Example E83, N-(4-ethoxyphenethyl)-1-methyl-i H-pyrazole-5-carboxamide] | 4680
20 | O=C(Nc1ccc(F)cc1F)c1cc(Cl)ccc1O [Example E89, 5-Chloro-N-(2,4-difluoro-phenyl)-2-hydroxy-benzamide] | 2560
21 | N#Cc1c(F)cccc1NC(=O)c1ccc(Cl)cc1Cl [Example E90, 2,4-Dichloro-N-(2-cyano-3-fluoro-phenyl)-benzamide] | 2710
22 | N#Cc1ccc(NC(=O)c2c(Cl)cccc2Cl)cc1 [Example E91, 2,6-Dichloro-N-(4-cyano-phenyl)-benzamide] | 2740
23 | Cc1ccc(NC(=O)c2ccc(Cl)c(C)c2)c(C)c1 [Example E92, 4-chloro-N-(2,4-dimethylphenyl)-3-methylbenzamide] | 2740
24 | COc1ccc(NC(=O)c2cc(Cl)c(OC)c(Cl)c2)cc1 [Example E93, 3,5-dicbloro-4-methoxy-N-(4-methoxyphenyl)benzamide] | 3240
25 | COc1ccc(NC(=O)c2ccc(F)c(Cl)c2)c(OC)c1 [Example E94, 3-chloro-N-(2,4-dimethoxyphenyl)-4-fluorobenzamide] | 3560
26 | CSc1nc(C)c(C(=O)Nc2ccccc2)c(C)c1C#N [Example E95, 5-Cyano-2,4-dimethyl-6-methylsulfanyl-N-phenyl-nicotinamide] | 3580
27 | CC(C)(C)c1csc(NC(=O)c2ccncc2)n1 [Example E96, N-(4-tert-Butyl-thiazol-2-yl)-isonicotinamide] | 3730
28 | COc1c(Cl)ccc(Cl)c1C(=O)Nc1ccc(C)cc1C [Example E97, 3,6-Dichloro-N-(2,4-dimethyl-phenyl)-2-methoxy-benzamide] | 4250
29 | CCc1cccc(NC(=O)c2c(C)cccc2OC)c1 [Example E98, N-(3-ethylphenyl)-2-methoxy-6-methylbenzamide] | 4630

These reach a lower EC50. Values come first.

Row | EC50 [nM] | Structure (SMILES)
30 | 2420 | CC1CCCCC1NC(=O)c1cncc(Br)c1 (centres unmarked) [Example E62, 5-bromo-N-(2-methylcyclohexyl)nicotinamide]
31 | 2400 | CC1CCCCC1NC(=O)c1cccc(C(F)(F)F)c1F (centres unmarked) [Example E61, 2-fluoro-N-(2-methylcyclohexyl)-3-(trifluoromethyl)benzamide]
32 | 2370 | CC1CCC(NC(=O)c2ccc(F)c(C(F)(F)F)c2)CC1 (centres unmarked) [Example E60, 4-fluoro-N-(4-methylcyclohexyl)-3-(trifluoromethyl)benzamide]
33 | 2340 | CC1CCCCC1NC(=O)c1cccc(C(F)(F)F)c1 (centres unmarked) [Example E59, N-(2-methylcyclohexyl)-3-(trifluoromethyl)benzamide]
34 | 2230 | Cc1c(F)c(F)c(C(=O)NC2CCCC2)c(F)c1F [Example E58, N-cyclopentyl-2,3,5,6-tetrafluoro-4-methylbenzamide]
35 | 1950 | Cc1cccc(C(=O)NC2CCCCC2C)c1Cl (centres unmarked) [Example E57, 2-chloro-3-methyl-N-(2-methylcyclohexyl)benzamide]
36 | 1920 | CC1CCCCC1NC(=O)c1ccnc(Cl)c1 (centres unmarked) [Example E56, 2-chloro-N-(2-methylcyclohexyl)isonicotinamide]
37 | 1890 | CC1CCCC(NC(=O)c2cncc(Br)c2)C1C (centres unmarked) [Example E55, 5-bromo-N-(2,3-dimethylcyclohexyl)mcotmamide]
38 | 1840 | COc1c(Cl)cc(C(=O)Nc2ccccc2C)cc1Cl [Example E88, 3,5-dichloro-4-methoxy-N-o-tolylbenzamide]
39 | 1830 | CC1CCCCC1NC(=O)c1ccc(Cl)c(Cl)c1 (centres unmarked) [Example E54, 3,4-dichloro-N-(2-methylcyclohexyl)benzamide]
40 | 1550 | O=C(Nc1nnc(C(F)(F)F)s1)c1ccc(F)c(Cl)c1 [Example E87, 3-Chloro-4-fluoro-N-(5-trifluoromethyl-[1,3,4]thiadiazol-2-yl)-benzamide]
41 | 1480 | COc1c(Cl)cc(C(=O)Nc2ccc(C)cc2C)cc1Cl [Example E86, 3,5-dichloro-N-(2,4-dimethylphenyl)-4-methoxybenzamide]
42 | 1420 | COc1cc(Cl)c(NC(=O)c2cccc(C(F)(F)F)c2)c(OC)c1 [Example E85, N-(2-Chloro-4,6-dimethoxy-phenyl)-3-trifluoromethyl-benzamide]
43 | 930 | Cc1cc(Br)cc(C)c1NC(=O)N1Cc2ccccc2C1 [Example E99, N-(4-bromo-2,6-dimethylphenyl)isoindoline-2-carboxamide]
44 | 830 | COc1c(Cl)ccc(Cl)c1C(=O)Nc1ccccc1F [Example E84, 3,6-dichloro-N-(2-fluorophenyl)-2-methoxybenzamide]
